In the oligonucleotide strings, read from the 5' end, every base follows the letter of its sugar. An asterisk marks phosphorothioate; unmarked linkages are phosphodiester. Other units and linkages are bracketed, terminal groups are in braces. A string of capitals states the bases alone. e = 2'-O-(2-methoxyethyl) (MOE); [5mC] = 5-methylcytosine; d = 2'-deoxy (DNA)
Columns and labels:
Factor XI mRNA = test: Cynomolgus monkeys, escalating doses: liver Factor XI RNA analysis (Example 29); type: in vivo; conditions: escalating doses 5, 10, 25 mg/kg s.c. over 12 weeks, day 85
Protocol: Groups, each consisting of two male and three female monkeys, were injected subcutaneously with ISIS 416838, ISIS 416850, ISIS 416858, ISIS 416864, or ISIS 417002 in escalating doses. Antisense oligonucleotide was administered to the monkeys at 5 mg/kg three times per a week for week 1; 5 mg/kg twice per week for weeks 2 and 3; 10 mg/kg three times per week for week 4; 10 mg/kg twice per week for weeks 5 and 6; 25 mg/kg three times per week for week 7; and 25 mg/kg twice per week for weeks 8, 9, 10, 11, and 12. One control group, consisting of two male and three female monkeys, was injected subcutaneously with PBS according to the same dosing regimen. An additional experimental group, consisting of two male and three female monkeys, was injected subcutaneously with ISIS 416850 in a chronic, lower dose regimen. Antisense oligonucleotide was administered to the monkeys at 5 mg/kg three times per week for week 1; 5 mg/kg twice per week for week 2 and 3; 10 mg/kg three times per week for week 4; and 10 mg/kg twice per week for weeks 5 to 12. Body weights were measured weekly. Blood samples were collected 14 days and 5 days before the start of treatment and subsequently once per week for Factor XI protein activity analysis in plasma and measurement of various hematologic factors. On day 85, the monkeys were euthanized by exsanguination while under deep anesthesia, and organs harvested for further analysis.
On day 85, RNA was extracted from liver tissue for real-time PCR analysis of Factor XI using primer probe set LTS00301 (forward primer sequence […], designated herein as SEQ ID NO 271; reverse primer sequence […], designated herein as SEQ ID NO: 272; and probe sequence TGCAGGCACAGCATCCCAGTGTTCTX, wherein X is a fluorphore, designated herein as SEQ ID NO. 273). Results are presented as percent inhibition of Factor XI, relative to PBS control.

human Factor XI mRNA = test: Dose-dependent inhibition and IC50 in HepG2 cells, electroporation (Example 15); type: cell-based
Protocol: Cells were plated at a density of 20,000 cells per well and transfected using electroporation with 123.46 nM, 370.37 nM, 1,111.11 nM, 3,333.33 nM and 10,000 nM concentrations of antisense oligonucleotide, as specified in Table 52. After a treatment period of approximately 16 hours, RNA was isolated from the cells and Factor XI mRNA levels were measured by quantitative real-time PCR. Human Factor XI primer probe set RTS 2966 was used to measure mRNA levels. Factor XI mRNA levels were adjusted according to total RNA content, as measured by RIBOGREEN. Results are presented as percent inhibition of Factor XI, relative to untreated control cells.

Factor XI protein = test: Cynomolgus monkeys: plasma Factor XI protein ELISA (Example 30); type: in vivo; conditions: for Inhibition of Factor XI protein relative to the PBS control: 25 mg/kg s.c., plasma ELISA
Protocol: Groups, each consisting of two male and two female monkeys, were injected subcutaneously with 25 mg/kg of ISIS 416850, ISIS 449709, ISIS 445522, ISIS 449710, ISIS 449707, ISIS 449711, ISIS 449708, 416858 and ISIS 445531. Antisense oligonucleotide was administered to the monkeys at 25 mg/kg three times per week for week 1 and 25 mg/kg twice per week for weeks 2 to 8. A control group, consisting of two male and two female monkeys was injected subcutaneously with PBS according to the same dosing regimen. Body weights were taken 14 days and 7 days before the start of treatment and were then measured weekly throughout the treatment period. Blood samples were collected 14 days and 5 days before the start of treatment and subsequently several times during the dosing regimen for measurement of various hematologic factors. On day 55, the monkeys were euthanized by exsanguination while under deep anesthesia, and organs harvested for further analysis.
Plasma samples from all monkey groups taken on different days were analyzed by a sandwich-style ELISA assay (Affinity Biologicals Inc.) using an affinity-purified polyclonal anti-Factor XI antibody as the capture antibody and a peroxidase-conjugated polyclonal anti-Factor XI antibody as the detecting antibody. Monkey plasma was diluted 1:50 for the assay. Peroxidase activity was expressed by incubation with the substrate o-phenylenediamine. The color produced was quantified using a microplate reader at 490 nm and was considered to be proportional to the concentration of Factor XI in the samples.
The results are presented in Table 148, expressed as percentage reduction relative to that of the PBS control.

[1] = Cynomolgus monkeys: body and organ weights (Example 29); type: in vivo
Outline: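 Monkeys (2 male, 3 female per group) dosed s.c. with antisense oligonucleotide, escalating 5→10→25 mg/kg two to three times weekly over 12 weeks (one chronic arm capped at 10 mg/kg); PBS controls. Body weights taken weekly; liver, kidney and spleen weighed after euthanasia on day 85.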

Question: For “417002 (antisense GGTGCACAGTTTCTGGCAGG; 2-13-5 gapmer, wing sugar chemistry not given here, further chemistry not given here) [compound 417002]”, which “% inhibition of Factor XI mRNA in liver relative to the PBS control” value (Factor XI mRNA) is on record?
Answer: The value was 57%.

Question: Which “percent inhibition of Factor XI mRNA” value (human Factor XI mRNA; electroporation, 123.47 nM) does the source give for “445522 (antisense eG*e[5mC]*eA*e[5mC]*eA*dG*dT*dT*dT*d[5mC]*dT*dG*dG*e[5mC]*eA*eG*eG*e[5mC]) [compound 445522]” here?
Answer: The value was 0%.

Question: And the “percent inhibition of Factor XI mRNA” value (human Factor XI mRNA; electroporation, 370.37 nM)?
Answer: Its value is 0%.

Question: What about the “percent inhibition of Factor XI mRNA” value (human Factor XI mRNA; electroporation, 1,111.11 nM) of the same substance?
Answer: Its value is 44%.

Question: What about the “percent inhibition of Factor XI mRNA” value (human Factor XI mRNA; electroporation, 3,333.33 nM) of the same substance?
Answer: Its value is 63%.

Question: And the “percent inhibition of Factor XI mRNA” value (human Factor XI mRNA; electroporation, 10,000.0 nM)?
Answer: The value was 74%.

Question: And the “Inhibition of Factor XI protein relative to the PBS control” value (Factor XI protein; Day 10)?
Answer: Its value is 36%.

Question: What about the “Inhibition of Factor XI protein relative to the PBS control” value (Factor XI protein; Day 17) of the same substance?
Answer: Its value is 50%.

Question: And the “Inhibition of Factor XI protein relative to the PBS control” value (Factor XI protein; Day 24)?
Answer: Its value is 61%.

Question: And the “Inhibition of Factor XI protein relative to the PBS control” value (Factor XI protein; Day 31)?
Answer: Its value is 70%.

Question: And the “Inhibition of Factor XI protein relative to the PBS control” value (Factor XI protein; Day 38)?
Answer: The value was 73%.

Question: And the “Inhibition of Factor XI protein relative to the PBS control” value (Factor XI protein; Day 45)?
Answer: The value was 77%.

Question: What about the “Inhibition of Factor XI protein relative to the PBS control” value (Factor XI protein; Day 52) of the same substance?
Answer: Its value is 80%.

Question: What about the “Inhibition of Factor XI protein relative to the PBS control” value (Factor XI protein; Day 55) of the same substance?
Answer: The value was 82%.

Question: And the “Inhibition of Factor XI protein relative to the PBS control” value (Factor XI protein; Day −5)?
Answer: The value was 0%.

Question: What about the “Inhibition of Factor XI protein relative to the PBS control” value (Factor XI protein; Day −14) of the same substance?
Answer: Its value is 2%.

Question: For “445531 (antisense eG*eG*e[5mC]*eA*eT*dT*dG*dG*dT*dG*d[5mC]*dA*d[5mC]*eA*eG*eT*eT*eT) [compound 445531]”, which “percent inhibition of Factor XI mRNA” value (human Factor XI mRNA; electroporation, 123.47 nM) is on record?
Answer: The value was 8%.

Question: And the “percent inhibition of Factor XI mRNA” value (human Factor XI mRNA; electroporation, 370.37 nM)?
Answer: Its value is 16%.

Question: What about the “percent inhibition of Factor XI mRNA” value (human Factor XI mRNA; electroporation, 1,111.11 nM) of the same substance?
Answer: Its value is 52%.

Question: And the “percent inhibition of Factor XI mRNA” value (human Factor XI mRNA; electroporation, 3,333.33 nM)?
Answer: Its value is 61%.

Question: And the “percent inhibition of Factor XI mRNA” value (human Factor XI mRNA; electroporation, 10,000.0 nM)?
Answer: Its value is 77%.

Question: What about the “Inhibition of Factor XI protein relative to the PBS control” value (Factor XI protein; Day 10) of the same substance?
Answer: Its value is 9%.

Question: What about the “Inhibition of Factor XI protein relative to the PBS control” value (Factor XI protein; Day 17) of the same substance?
Answer: The value was 22%.

Question: And the “Inhibition of Factor XI protein relative to the PBS control” value (Factor XI protein; Day 24)?
Answer: The value was 23%.

Question: What about the “Inhibition of Factor XI protein relative to the PBS control” value (Factor XI protein; Day 31) of the same substance?
Answer: The value was 27%.

Question: What about the “Inhibition of Factor XI protein relative to the PBS control” value (Factor XI protein; Day 38) of the same substance?
Answer: The value was 29%.

Question: What about the “Inhibition of Factor XI protein relative to the PBS control” value (Factor XI protein; Day 45) of the same substance?
Answer: Its value is 32%.

Question: What about the “Inhibition of Factor XI protein relative to the PBS control” value (Factor XI protein; Day 52) of the same substance?
Answer: The value was 32%.

Question: What about the “Inhibition of Factor XI protein relative to the PBS control” value (Factor XI protein; Day 55) of the same substance?
Answer: Its value is 37%.

Question: What about the “Inhibition of Factor XI protein relative to the PBS control” value (Factor XI protein; Day −5) of the same substance?
Answer: The value was 1%.

Question: And the “Inhibition of Factor XI protein relative to the PBS control” value (Factor XI protein; Day −14)?
Answer: The value was 0%.

Question: What does the source list for “ISIS 416850: gapmer of Table 8 (antisense eT*eG*e[5mC]*eA*e[5mC]*dA*dG*dT*dT*dT*d[5mC]*dT*dG*dG*d[5mC]*eA*eG*eG*e[5mC]*e[5mC])”?
Answer: Factor XI protein levels (in words) (Factor XI protein; cynomolgus monkeys, Example 30): time-dependent decrease in protein levels; Body weight ([1]; chronic, lower dose regimen (*) 5 then 10 mg/kg s.c., day 1): 2665 g; Body weight ([1]; chronic, lower dose regimen (*) 5 then 10 mg/kg s.c., day 8): 2579 g; Body weight ([1]; chronic, lower dose regimen (*) 5 then 10 mg/kg s.c., day 15): 2607 g; Body weight ([1]; chronic, lower dose regimen (*) 5 then 10 mg/kg s.c., day 22): 2661 g; Body weight ([1]; chronic, lower dose regimen (*) 5 then 10 mg/kg s.c., day 29): 2667 g; Body weight ([1]; chronic, lower dose regimen (*) 5 then 10 mg/kg s.c., day 36): 2656 g; Body weight ([1]; chronic, lower dose regimen (*) 5 then 10 mg/kg s.c., day 43): 2670 g; Body weight ([1]; chronic, lower dose regimen (*) 5 then 10 mg/kg s.c., day 50): 2679 g; Body weight ([1]; escalating doses 5, 10, 25 mg/kg s.c., day 1): 2572 g; Body weight ([1]; escalating doses 5, 10, 25 mg/kg s.c., day 8): 2430 g; Body weight ([1]; escalating doses 5, 10, 25 mg/kg s.c., day 15): 2474 g; Body weight ([1]; escalating doses 5, 10, 25 mg/kg s.c., day 22): 2514 g; Body weight ([1]; escalating doses 5, 10, 25 mg/kg s.c., day 29): 2515 g; Body weight ([1]; escalating doses 5, 10, 25 mg/kg s.c., day 36): 2545 g; Body weight ([1]; escalating doses 5, 10, 25 mg/kg s.c., day 43): 2544 g; Body weight ([1]; escalating doses 5, 10, 25 mg/kg s.c., day 50): 2613 g; Body weight ([1]; escalating doses 5, 10, 25 mg/kg s.c., day 57): 2629 g; Body weight ([1]; escalating doses 5, 10, 25 mg/kg s.c., day 64): 2642 g; Body weight ([1]; escalating doses 5, 10, 25 mg/kg s.c., day 71): 2769 g; Body weight ([1]; escalating doses 5, 10, 25 mg/kg s.c., day 78): 2660 g

From US20120083522A1, “MODULATION OF INFLAMMATORY RESPONSES BY FACTOR XI” (Isis Pharmaceuitcals, inc., priority 2009, published 2012)
